Laboratory results published in patent publication US20020054941A1, “Methods and compositions to enhance tenderness and value of meat” (The Board of Regents of the University of Nebraska, priority 2000, published 2002).
Marks after values point to notes of the source that are not given here.

Experiments:
[1] = tested on: sternomandibularis beef muscles; experiment: pH of pre-rigor injected sectioned muscle; conditions: injection 10% of muscle weight, 200 mM (glucose, calcium chloride 300 mM)
Procedure: Pre-rigor beef muscle was sectioned and the sections were injected at approximately 1 hour post-mortem with a volume of treatment solution equal to 10% of the muscle weight. Objective color measurements were taken on pieces of each muscle section and the pieces were then frozen, powdered and stored at −80° C. for up to 10 days before testing pH and analyzing oxidation-reduction potential. Shear force was evaluated as described immediately above. Solutions used in this procedure were as follows: sodium citrate (200 mM), sodium acetate (200 mM), glucose (300 mM), calcium citrate (200 mM), calcium chloride (300 mM), injection with water, and no injection (control). The calcium citrate solution was prepared as a suspension using 0.25% carrageenan and 200 mM calcium citrate due to its insolubility in water. However, use of calcium citrate can be optimized by increasing solubility by means known in the art.

[2] = tested on: semimembranosus beef muscles; experiment: Muscle pH, pre-rigor injection of whole muscle
Procedure: (§1) Experiment were conducted to test the effects of pre-rigor injection of several compounds. Effects of these compounds on pH, color, tenderness and other related traits of low-value beef cuts were investigated. Ten steers (22 to 24 mo of age, 515 to 676 kg live weight) were slaughtered according to current industry procedures. Pre-rigor semimembranosus (from the round), triceps brachii and supraspinatus muscles (from the chuck) were excised, after evisceration (approximately 1 hour post-mortem), from both sides of the carcass. Muscle sections were randomly assigned to the treatments: sodium citrate (NaC; 200 mM), sodium fluoride (NaF; 200 mM), sodium acetate (NaA; 200 mM), and calcium chloride (CaCl2; 300 mM). The control samples remained on the carcass at 2° C. for 24 hours to simulate commercial conditions. Following a cooling, control muscles were removed from each carcass (4 replicates), vacuum packaged and transferred to the holding cooler with the other cuts at 2° C. Calcium chloride treatment was included to be compared with the other treatments.
(§2) At 2 hours post-mortem, each muscle was injected with a volume equal to 8% of the muscle weight using a four-needle hand injector. The temperature of solutions were 4° C. Each muscle was individually treated (2% of solution was added to give a total of 10% of muscle weight) and tumbled in a 75-pound capacity tumbler (Röschermatic, Oshabrück, Germany) for 30 min to insure uniform distribution of the solution.
(§3) Samples of each muscle (approximately 100 g) were taken at 0 hour (before injection), 24, and 72 hours after injection for determination of pH, oxidation-reduction potential, glycogen content, R-values, NAD, and NADH. The samples were then immediately frozen in liquid nitrogen and stored at −80° C. until they were powdered and analyzed. Fresh muscle samples (approximately 20 g) were taken at 72 hours after injection and assayed immediately for water holding capacity and sarcomere length.
(§4) Duplicate pre-rigor samples (5 g) were weighed from powdered sample and homogenized (Polytron, Brinkman Instruments, New York, N.Y.) in 50 mL of 5 mM iodoacetic acid, 150 mM potassium chloride (pH 7.0, 24° C.) to stop glycolysis (Ahn et al., 1992). The pH of the suspension was measured with a general purpose electrode (Corning Glass Works, Corning, N.Y.) attached to an Orion Model SA 720 pH meter (Orion Research, Inc., Boston, Mass.). Post-rigor muscle pH was determined by homogenizing 5 g of sample in 50 mL of deionized water (Winger et al., 1979).

[3] = tested on: supraspinatus beef muscles; experiment: Muscle pH, pre-rigor injection of whole muscle
Procedure: as §1, §2, §3, §4

[4] = tested on: triceps brachii beef muscles; experiment: Muscle pH, pre-rigor injection of whole muscle; conditions: 200 mM, calcium chloride 300 mM
Procedure: as §1, §2, §3, §4

spoilage micro-organisms = experiment: Microbial stability (logarithmic microbiological growth); conditions: for Logarithmic Microbiological Growth Values, difference: difference day 5 - day 0
Procedure: (§5) Thoracic limbs from 14 steers were chilled on the carcass (controls) or removed within 2 hours post-mortem and pumped to 10% of muscle weight with water, 200 mM or 400 mM sodium citrate solutions. The injections were performed at various sites along the muscle. The control remained on the carcass. Muscle pH and temperature were measured immediately prior to pumping. Experimental and control muscles were chilled at 2° C. for 24 hours. Steaks (2.54 cm thick) were removed after 24 hours from the Infraspinatus, Supraspinatus and Triceps brachii muscles and were either frozen immediately or aged for another 6 days and then evaluated. A consumer panel evaluated palatability juiciness, tenderness, connective tissue amount, and flavor desirability) on Infraspinatus and Triceps brachii steaks using 9-point hedonic scales (1 being very undesirable and 9 being very desirable) for each trait. Warner-Bratzler shear force values were determined on 1.27 cm-diameter cores from steaks that were broiled to an internal temperature of 70° C.
There were no differences in initial microbial load among the treatments.

[5] = tested on: Triceps brachii (TBR) steaks; experiment: Consumer panel palatability ratings of steaks; parameters: species or system steers; conditions: for Flavor / Tenderness: TBR, 9-point hedonic scale
Procedure: as §5

[6] = tested on: Infraspinatus (ISP) steaks; experiment: Consumer panel palatability ratings of steaks; parameters: species or system steers; conditions: for Flavor / Tenderness: ISP, 9-point hedonic scale
Procedure: as §5

Supraspinatus (SSP) = experiment: Warner-Bratzler shear force of muscle pumped pre-rigor with sodium citrate; parameters: species or system steers; unit not given here
Procedure: as §5

Infraspinatus (ISP) = experiment: as above; parameters: species or system steers; unit not given here
Procedure: as §5

Triceps brachii (TBR) = experiment: as above; parameters: species or system steers; unit not given here
Procedure: as §5

[7] = 24 h, 200 mM, calcium chloride 300 mM
[8] = 72 h, 200 mM, calcium chloride 300 mM
[9] = 400 mM, Triceps brachii, day 1 and day 7, P<0.10, data not shown
[10] = 400 mM, Infraspinatus, day 1 and day 7, P<0.10, data not shown

Structure (SMILES): O=C([O-])CC(O)(CC(=O)[O-])C(=O)[O-].[Na+].[Na+].[Na+] [Sodium citrate, sodium citrate]
- PH (0 h) ([1]; 0 h): 6.86
- pH, 72 h ([1]; 72 h): 5.77^bc
- pH, 0 h ([2]; 0 h (before injection)): 6.68
- pH, 24 h [2, 7]: 5.97^a
- pH, 72 h [2, 8]: 5.78^b
- pH, 0 h ([3]; 0 h (before injection)): 6.73
- pH, 24 h [3, 7]: 6.04^b
- pH, 72 h [3, 8]: 5.86^b
- pH, 0 h ([4]; 0 h (before injection)): 6.71
- pH, 24 h ([4]; 24 h after injection): 5.97^a
- pH, 72 h ([4]; 72 h after injection): 5.72^b
- Logarithmic Microbiological Growth Values (spoilage micro-organisms; 200 mM, day 0): 2.58
- Logarithmic Microbiological Growth Values (spoilage micro-organisms; 200 mM, day 5): 5.45^b
- Logarithmic Microbiological Growth Values, difference (spoilage micro-organisms; 200 mM): 2.88^b
- Logarithmic Microbiological Growth Values (spoilage micro-organisms; 400 mM, day 0): 2.72
- Logarithmic Microbiological Growth Values (spoilage micro-organisms; 400 mM, day 5): 5.11^b
- Logarithmic Microbiological Growth Values, difference (spoilage micro-organisms; 400 mM): no greater microbial growth than the control
- Logarithmic Microbiological Growth Values, difference (spoilage micro-organisms; 400 mM, listed as NaCit): 2.40^a,b
- Flavor ([5]; 200 mM, d1): 5.23^a
- Tenderness ([5]; 200 mM, d1): 4.81^b
- Flavor ([5]; 200 mM, d7): 4.87^a
- Flavor ([5]; 400 mM, d1): 5.30^a*
- Tenderness ([5]; 400 mM, d1): 5.25^a
- Flavor ([5]; 400 mM, d7): 5.18^a
- Tenderness ([5]; 400 mM, d7): 5.48^a
- Connective tissue amount rating vs controls [5, 9]: more desirable
- Juiciness rating vs controls [5, 9]: more desirable
- Flavor ([6]; 200 mM, d1): 5.33^a,b
- Tenderness ([6]; 200 mM, d1): 5.36^a,b
- Flavor ([6]; 200 mM, d7): 5.35^a
- Tenderness ([6]; 200 mM, d7): 5.68^a
- Flavor ([6]; 400 mM, d1): 5.49^a*
- Tenderness ([6]; 400 mM, d1): 5.67^a
- Flavor ([6]; 400 mM, d7): 5.41^a
- Tenderness ([6]; 400 mM, d7): 5.90^a
- Connective tissue amount rating vs controls [6, 10]: more desirable
- Juiciness rating vs controls [6, 10]: more desirable
- WBSF (Supraspinatus (SSP); 200 mM, d1): 4.09^a
- WBSF (Supraspinatus (SSP); 200 mM, d7): 3.83^a
- WBSF (Supraspinatus (SSP); 400 mM, d1): 3.91^a
- WBSF (Supraspinatus (SSP); 400 mM, d7): 4.03^a
- WBSF (Infraspinatus (ISP); 200 mM, d1): 3.57^b
- WBSF (Infraspinatus (ISP); 200 mM, d7): 3.12^b
- WBSF (Infraspinatus (ISP); 400 mM, d1): 3.32^a
- WBSF (Infraspinatus (ISP); 400 mM, d7): 2.79^a
- WBSF (Triceps brachii (TBR); 200 mM, d1): 3.85^a
- WBSF (Triceps brachii (TBR); 200 mM, d7): 3.57^b
- WBSF (Triceps brachii (TBR); 400 mM, d1): 3.55^a
- WBSF (Triceps brachii (TBR); 400 mM, d7): 3.09^a
